Earlier results in US20040247676A1, “Use of multi-layer controlled-release tablet comprising ropinirole for the manufacture of medicament for the treatment of fibromyalgia” (priority 2001, published 2004).
Counter-ions that a name gives are not always drawn.

Tested on: fibromyalgia
Conditions: immediate release formulation

Compound: CCCN(CCC)CCc1cccc2c1CC(=O)N2 [ropinirole hydrochloride]
- effectiveness in the treatment of fibromyalgia: particularly effective
